Source: PubChem BioAssay AID1259407 (Chemical Carcinogenesis Research Information System (CCRIS), 2018)
The source made the active and inactive calls. How the calls were made is not given here.

System: CCRIS mutagenicity, Ames/micronucleus/aberration tests
Experiment: CCRIS mutagenicity studies
[1] = Test System: AMES SALMONELLA TYPHIMURIUM, Strain/Indicator: TA98, Metabolic Activation: NONE, Method: PREINCUBATION
[2] = Test System: AMES SALMONELLA TYPHIMURIUM, Strain/Indicator: TA98, Metabolic Activation: NONE, Method: STANDARD PLATE
[3] = Test System: AMES SALMONELLA TYPHIMURIUM, Strain/Indicator: TA98, Metabolic Activation: RAT, LIVER, S-9, AROCLOR 1254, Method: STANDARD PLATE
[4] = Test System: AMES SALMONELLA TYPHIMURIUM, Strain/Indicator: TA100, Metabolic Activation: NONE, Method: STANDARD PLATE
[5] = Test System: AMES SALMONELLA TYPHIMURIUM, Strain/Indicator: TA100, Metabolic Activation: RAT, LIVER, S-9, AROCLOR 1254, Method: STANDARD PLATE

`O=[N+]([O-])c1ccc2c(c1)Cc1cc([N+](=O)[O-])ccc1-2` was tested, and the mutagenic call (Test System: AMES SALMONELLA TYPHIMURIUM, Strain/Indicator: TA98(1,8-DNP6), Metabolic Activation: NONE, Method: STANDARD PLATE) was “active; positive”, the mutagenic call (Test System: AMES SALMONELLA TYPHIMURIUM, Strain/Indicator: TA98(NR), Metabolic Activation: NONE, Method: STANDARD PLATE) was “active; positive” and the mutagenic call [1] was “active; positive”. The mutagenic call [2] was “active; positive”, the mutagenic call [3] was “active; positive” and the mutagenic call (Test System: AMES SALMONELLA TYPHIMURIUM, Strain/Indicator: TA98, Metabolic Activation: RAT, LIVER, S-9, PCB (10%), Method: PREINCUBATION) was “active; positive”. For the same molecule, the mutagenic call [4] was “active; positive” and the mutagenic call [5] was “active; positive”.
In the case of `C[C@]12C=CC3=C4CCC(=O)C=C4CC[C@H]3[C@@H]1CC[C@@H]2O`, the mutagenic call [2] is reported as “inactive; negative”, the mutagenic call (Test System: AMES SALMONELLA TYPHIMURIUM, Strain/Indicator: TA98, Metabolic Activation: RAT, LIVER, S-9, AROCLOR 1254 (5%, 30%), Method: PREINCUBATION) is reported as “inactive; negative” and the mutagenic call [3] is reported as “inactive; negative”. The mutagenic call (Test System: AMES SALMONELLA TYPHIMURIUM, Strain/Indicator: TA98, Metabolic Activation: RAT, LIVER, S-9, Method: STANDARD PLATE) was “inactive; negative; toxicity at 3000 ug/plate”, the mutagenic call [4] was “inactive; negative” and the mutagenic call (Test System: AMES SALMONELLA TYPHIMURIUM, Strain/Indicator: TA100, Metabolic Activation: RAT, LIVER, S-9, AROCLOR 1254 (5%, 30%), Method: PREINCUBATION) was “inactive; negative”. The mutagenic call [5] was “inactive; negative”, the mutagenic call (Test System: AMES SALMONELLA TYPHIMURIUM, Strain/Indicator: TA100, Metabolic Activation: RAT, LIVER, S-9, Method: STANDARD PLATE) was “inactive; negative” and the mutagenic call (Test System: AMES SALMONELLA TYPHIMURIUM, Strain/Indicator: TA102, Metabolic Activation: RAT, LIVER, S-9, AROCLOR 1254 (5%, 30%), Method: PREINCUBATION) was “inactive; negative”. For the same molecule, the mutagenic call (Test System: AMES SALMONELLA TYPHIMURIUM, Strain/Indicator: TA1535, Metabolic Activation: RAT, LIVER, S-9, AROCLOR 1254, Method: STANDARD PLATE) was “inactive; negative”, the mutagenic call (Test System: AMES SALMONELLA TYPHIMURIUM, Strain/Indicator: TA1535, Metabolic Activation: RAT, LIVER, S-9, Method: STANDARD PLATE) was “inactive; negative” and the mutagenic call (Test System: AMES SALMONELLA TYPHIMURIUM, Strain/Indicator: TA1537, Metabolic Activation: RAT, LIVER, S-9, AROCLOR 1254, Method: STANDARD PLATE) was “inactive; negative”. For the same molecule, the mutagenic call (Test System: AMES SALMONELLA TYPHIMURIUM, Strain/Indicator: TA1537, Metabolic Activation: RAT, LIVER, S-9, Method: STANDARD PLATE) was “inactive; negative”, the mutagenic call (Test System: AMES SALMONELLA TYPHIMURIUM, Strain/Indicator: TA1538, Metabolic Activation: RAT, LIVER, S-9, AROCLOR 1254, Method: STANDARD PLATE) was “inactive; negative” and the mutagenic call (Test System: AMES SALMONELLA TYPHIMURIUM, Strain/Indicator: TA1538, Metabolic Activation: RAT, LIVER, S-9, Method: STANDARD PLATE) was “inactive; negative”. The mutagenic call (Test System: CHINESE HAMSTER V-79, Strain/Indicator: V-79/6-THIOGUANINE, Metabolic Activation: NONE, Method: STANDARD PLATE) was “inactive; negative”, the mutagenic call (Test System: CHINESE HAMSTER V-79, Strain/Indicator: V-79/6-THIOGUANINE, Metabolic Activation: RAT, LIVER, S-9, AROCLOR 1254, Method: STANDARD PLATE) was “inactive; negative” and the mutagenic call (Test System: CHO/HGPRT, Strain/Indicator: CHO-K1-BH4, Metabolic Activation: NONE, Method: STANDARD PLATE) was “inactive; negative”. The mutagenic call (Test System: CHO/HGPRT, Strain/Indicator: CHO-K1-BH4, Metabolic Activation: RAT, LIVER, S-9, AROCLOR 1254, Method: STANDARD PLATE) was “inactive; negative”.
With `C=CCN(CC=C)CC=C` the mutagenic call (Test System: AMES SALMONELLA TYPHIMURIUM, Strain/Indicator: TA98, Metabolic Activation: HAMSTER, LIVER, S-9, AROCLOR 1254 (10%), Method: PREINCUBATION) was “inactive; negative”, the mutagenic call [1] was “inactive; negative” and the mutagenic call (Test System: AMES SALMONELLA TYPHIMURIUM, Strain/Indicator: TA98, Metabolic Activation: RAT, LIVER, S-9, AROCLOR 1254 (10%), Method: PREINCUBATION) was “inactive; negative”. The mutagenic call (Test System: AMES SALMONELLA TYPHIMURIUM, Strain/Indicator: TA100, Metabolic Activation: HAMSTER, LIVER, S-9, AROCLOR 1254 (10%), Method: PREINCUBATION) was “inactive; negative”, the mutagenic call (Test System: AMES SALMONELLA TYPHIMURIUM, Strain/Indicator: TA100, Metabolic Activation: NONE, Method: PREINCUBATION) was “inactive; negative” and the mutagenic call (Test System: AMES SALMONELLA TYPHIMURIUM, Strain/Indicator: TA100, Metabolic Activation: RAT, LIVER, S-9, AROCLOR 1254 (10%), Method: PREINCUBATION) was “inactive; negative”. The mutagenic call (Test System: AMES SALMONELLA TYPHIMURIUM, Strain/Indicator: TA1535, Metabolic Activation: HAMSTER, LIVER, S-9, AROCLOR 1254 (10%), Method: PREINCUBATION) was “inactive; negative”, the mutagenic call (Test System: AMES SALMONELLA TYPHIMURIUM, Strain/Indicator: TA1535, Metabolic Activation: NONE, Method: PREINCUBATION) was “inactive; negative” and the mutagenic call (Test System: AMES SALMONELLA TYPHIMURIUM, Strain/Indicator: TA1535, Metabolic Activation: RAT, LIVER, S-9, AROCLOR 1254 (10%), Method: PREINCUBATION) was “inactive; negative”. For the same molecule, the mutagenic call (Test System: AMES SALMONELLA TYPHIMURIUM, Strain/Indicator: TA1537, Metabolic Activation: HAMSTER, LIVER, S-9, AROCLOR 1254 (10%), Method: PREINCUBATION) was “inactive; negative”, the mutagenic call (Test System: AMES SALMONELLA TYPHIMURIUM, Strain/Indicator: TA1537, Metabolic Activation: NONE, Method: PREINCUBATION) was “inactive; negative” and the mutagenic call (Test System: AMES SALMONELLA TYPHIMURIUM, Strain/Indicator: TA1537, Metabolic Activation: RAT, LIVER, S-9, AROCLOR 1254 (10%), Method: PREINCUBATION) was “inactive; negative”.
